Experimental data taken from patent US5516790A, “Synthesis and application of alkyl-substituted dibenzofurans as antitumorigenic agents” (Texas A&M University System Technology Licensing Office, priority 1994, dated 1996).

Key:
female rat uterus = test: Antiestrogenic effect on uterine wet weight, immature female Sprague-Dawley rats (Example 8); assay type: in vivo
estrogen receptor (ER) = test: Uterine estrogen receptor levels, hydroxyapatite assay (Example 8); assay type: in vivo, female Sprague-Dawley rats; conditions: for ED40-60 for Inhibition, ERc / ED40-60 for Inhibition, ERn: cotreatment with 17β-estradiol
Experimental: A second group of animals was similarly treated with corn oil, TCDD, MCDF, or TCDD plus MCDF, all administered in corn oil at 10 ml/kg and terminated 72 hours later.
(§1) The animals were terminated by cervical dislocation. Livers were perfused with ice-cold TEDG buffer (10 mM Tris-HCl, 1.5 mM EDTA-4Na, 1 mM dithiothreitol, 10% glycerol (v/v), pH 7.4). Following perfusion in situ, livers were removed, weighed, and homogenized in ice-cold TEDG buffer. Uteri were also removed, weighed, and homogenized in ice-cold buffer. The homogenates were then centrifuged at 800×g ([…]) for 15 minutes and the nuclear pellets were stored at -80° C. The supernatants were further centrifuged at 180,000× g for 1.5 hours. The cytosolic supernatant was also stored at -80° C. Estrogen and progesterone receptor levels were determined within 7 days.
(§2) Estrogen (ER) and progesterone (PR) receptor levels were determined by the hydroxyapatite assay as described by Clark et al. (J. Steroid Biochem. 16:323-328, 1982) and incorporated herein by reference. […] Following the incubations, samples were counted and specific binding was calculated by subtraction of nonspecific from total binding. Assuming one steroid molecule binds to one estrogen/progesterone receptor, the number of moles of receptor can be calculated given the specific activity of the radioligand. The data presented in Tables 1 through 6 are means ± SD using at least four animals per treatment group. Significant differences were determined by analysis of variance.

[1] = tested on: progesterone receptor (PR); test: Uterine progesterone receptor levels, hydroxyapatite assay (Example 8); assay type: in vivo, female Sprague-Dawley rats; conditions: for ED40-60 for Inhibition, PRc / ED40-60 for Inhibition, PRn: cotreatment with 17β-estradiol
Experimental: as §1, §2

[2] = 150 μmol/kg + E-2 (2 × 10 μg/rat), run B
[3] = compound alone, 150 μmol/kg (17β-estradiol: 2 × 10 μg/rat), run B
[4] = Table 3: 50 μmol/kg + E-2 (2 × 10 μg/rat)
[5] = Table 3: compound alone, 50 μmol/kg (17β-estradiol: 2 × 10 μg/rat)
[6] = dose-response, 2 μmol/kg + 17β-estradiol (2 × 10 μg/rat)
[7] = dose-response, 10 μmol/kg + 17β-estradiol (2 × 10 μg/rat)
[8] = dose-response, 25 μmol/kg + 17β-estradiol (2 × 10 μg/rat)
[9] = dose-response, 50 μmol/kg + 17β-estradiol (2 × 10 μg/rat)
[10] = 150 μmol/kg + E-2 (2 × 10 μg/rat), run A
[11] = compound alone, 150 μmol/kg (17β-estradiol: 2 × 10 μg/rat), run A
[12] = Table 2: 50 μmol/kg + E-2 (2 × 10 μg/rat)
[13] = Table 2: compound alone, 50 μmol/kg (17β-estradiol: 2 × 10 μg/rat)

CCCc1cc(Cl)cc2c1oc1cc(Cl)cc(Cl)c12 [6-n-Propyl-1,3,8-triCDF]
Uterine Wet Weight (female rat uterus; [2]): 0.240 ± 0.019 % body wt
Uterine Wet Weight (female rat uterus; [3]): 0.118 ± 0.008 % body wt
Estrogen Receptor Levels, Cytosolic (estrogen receptor (ER); [2]): 169.4 ± 6.0 fmol/mg protein
Estrogen Receptor Levels, Nuclear (estrogen receptor (ER); [2]): 33.7 ± 1.7 fmol/mg protein
Estrogen Receptor Levels, Cytosolic (estrogen receptor (ER); [3]): 86.4 ± 8.1 fmol/mg protein
Estrogen Receptor Levels, Nuclear (estrogen receptor (ER); [3]): 35.4 ± 1.8 fmol/mg protein
Progesterone Receptor Levels, Cytosolic [1, 2]: 1838 ± 62 fmol/mg protein
Progesterone Receptor Levels, Nuclear [1, 2]: 408 ± 29 fmol/mg protein
Progesterone Receptor Levels, Cytosolic [1, 3]: 740 ± 71 fmol/mg protein
Progesterone Receptor Levels, Nuclear [1, 3]: 294 ± 21 fmol/mg protein

CCc1cc(Cl)cc2c1oc1cc(Cl)cc(Cl)c12 [6-Ethyl-1,3,8-triCDF]
Uterine Wet Weight (female rat uterus; [2]): 0.226 ± 0.013 % body wt
Uterine Wet Weight (female rat uterus; [3]): 0.128 ± 0.007 % body wt
Estrogen Receptor Levels, Cytosolic (estrogen receptor (ER); [2]): 104.3 ± 77.1 fmol/mg protein
Estrogen Receptor Levels, Nuclear (estrogen receptor (ER); [2]): 34.9 ± 1.8 fmol/mg protein
Estrogen Receptor Levels, Cytosolic (estrogen receptor (ER); [3]): 98.4 ± 5.5 fmol/mg protein
Estrogen Receptor Levels, Nuclear (estrogen receptor (ER); [3]): 33.9 ± 1.7 fmol/mg protein
Progesterone Receptor Levels, Cytosolic [1, 2]: 1601 ± 121 fmol/mg protein
Progesterone Receptor Levels, Nuclear [1, 2]: 277 ± 19 fmol/mg protein
Progesterone Receptor Levels, Cytosolic [1, 3]: 688 ± 49 fmol/mg protein
Progesterone Receptor Levels, Nuclear [1, 3]: 243 ± 17 fmol/mg protein

Cc1cc2c(cc1Cl)oc1c(Cl)c(Cl)c(Cl)cc12 [8-Methyl-2,3,4,7-tetraCDF, 8-Methyl-2,3,4,7-tetrachlorodibenzofuran]
Uterine Wet Weight (female rat uterus; [4]): 0.245 ± 0.006 % body wt
Uterine Wet Weight (female rat uterus; [5]): 0.094 ± 0.006 % body wt
Uterine Wet Weight (female rat uterus; [6]): 0.179 ± 0.009 % body wt
Uterine Wet Weight (female rat uterus; [7]): 0.201 ± 0.008 % body wt
Uterine Wet Weight (female rat uterus; [8]): 0.181 ± 0.002 % body wt
Uterine Wet Weight (female rat uterus; [9]): 0.172 ± 0.005 % body wt
Estrogen Receptor Levels, Cytosolic (estrogen receptor (ER); [4]): 107.2 ± 5.4 fmol/mg protein
Estrogen Receptor Levels, Nuclear (estrogen receptor (ER); [4]): 43.7 ± 2.2 fmol/mg protein
Estrogen Receptor Levels, Cytosolic (estrogen receptor (ER); [5]): 66.8 ± 3.3 fmol/mg protein
Estrogen Receptor Levels, Nuclear (estrogen receptor (ER); [5]): 30.9 ± 1.6 fmol/mg protein
ED40-60 for Inhibition, ERc (estrogen receptor (ER)): 10 µmol/kg
ED40-60 for Inhibition, ERn (estrogen receptor (ER)): 25 µmol/kg
Estrogen Receptor Levels, Cytosolic (estrogen receptor (ER); [6]): 183.4 ± 9.2 fmol/mg protein
Estrogen Receptor Levels, Nuclear (estrogen receptor (ER); [6]): 83.2 ± 4.2 fmol/mg protein
Estrogen Receptor Levels, Cytosolic (estrogen receptor (ER); [7]): 151.9 ± 9.1 fmol/mg protein
Estrogen Receptor Levels, Nuclear (estrogen receptor (ER); [7]): 82.8 ± 5.0 fmol/mg protein
Estrogen Receptor Levels, Cytosolic (estrogen receptor (ER); [8]): 137.4 ± 6.9 fmol/mg protein
Estrogen Receptor Levels, Nuclear (estrogen receptor (ER); [8]): 69.0 ± 4.1 fmol/mg protein
Estrogen Receptor Levels, Cytosolic (estrogen receptor (ER); [9]): 114.9 ± 5.8 fmol/mg protein
Estrogen Receptor Levels, Nuclear (estrogen receptor (ER); [9]): 69.2 ± 4.2 fmol/mg protein
Progesterone Receptor Levels, Cytosolic [1, 4]: 725 ± 51 fmol/mg protein
Progesterone Receptor Levels, Nuclear [1, 4]: 360 ± 25 fmol/mg protein
Progesterone Receptor Levels, Cytosolic [1, 5]: 616 ± 43 fmol/mg protein
Progesterone Receptor Levels, Nuclear [1, 5]: 161 ± 13 fmol/mg protein
ED40-60 for Inhibition, PRc [1]: 10 µmol/kg
ED40-60 for Inhibition, PRn [1]: 10 µmol/kg
Progesterone Receptor Levels, Cytosolic [1, 6]: 2167 ± 152 fmol/mg protein
Progesterone Receptor Levels, Nuclear [1, 6]: 866 ± 52 fmol/mg protein
Progesterone Receptor Levels, Cytosolic [1, 7]: 1670 ± 117 fmol/mg protein
Progesterone Receptor Levels, Nuclear [1, 7]: 701 ± 35 fmol/mg protein
Progesterone Receptor Levels, Cytosolic [1, 8]: 1405 ± 98 fmol/mg protein
Progesterone Receptor Levels, Nuclear [1, 8]: 697 ± 56 fmol/mg protein
Progesterone Receptor Levels, Cytosolic [1, 9]: 1098 ± 88 fmol/mg protein
Progesterone Receptor Levels, Nuclear [1, 9]: 514 ± 41 fmol/mg protein

Clc1cc(Cl)c2c(c1)oc1c(Cl)cc(Cl)cc12 [1,3,6,8-tetraCDF]
Uterine Wet Weight (female rat uterus; [10]): 0.187 ± 0.020 % body wt
Uterine Wet Weight (female rat uterus; [11]): 0.123 ± 0.004 % body wt
Estrogen Receptor Levels, Cytosolic (estrogen receptor (ER); [10]): 75.5 ± 17.3 fmol/mg protein
Estrogen Receptor Levels, Nuclear (estrogen receptor (ER); [10]): 16.1 ± 2.3 fmol/mg protein
Estrogen Receptor Levels, Cytosolic (estrogen receptor (ER); [11]): 55.2 ± 5.6 fmol/mg protein
Estrogen Receptor Levels, Nuclear (estrogen receptor (ER); [11]): 18.5 ± 3.8 fmol/mg protein
Progesterone Receptor Levels, Cytosolic [1, 10]: 798 ± 83 fmol/mg protein
Progesterone Receptor Levels, Nuclear [1, 10]: 291 ± 71 fmol/mg protein
Progesterone Receptor Levels, Cytosolic [1, 11]: 571 ± 49 fmol/mg protein
Progesterone Receptor Levels, Nuclear [1, 11]: 199 ± 46 fmol/mg protein

Cc1cc(Cl)cc2c1oc1c(Cl)c(Cl)c(Cl)cc12 [6-Methyl-2,3,4,8-tetraCDF, 6-Methyl-2,3,4,8-tetrachlorodibenzofuran]
Uterine Wet Weight (female rat uterus; [12]): 0.163 ± 0.019 % body wt
Uterine Wet Weight (female rat uterus; [13]): 0.109 ± 0.020 % body wt
Uterine Wet Weight (female rat uterus; [6]): 0.268 ± 0.044 % body wt
Uterine Wet Weight (female rat uterus; [7]): 0.221 ± 0.020 % body wt
Uterine Wet Weight (female rat uterus; [8]): 0.191 ± 0.006 % body wt
Uterine Wet Weight (female rat uterus; [9]): 0.158 ± 0.004 % body wt
Estrogen Receptor Levels, Cytosolic (estrogen receptor (ER); [12]): 176.3 ± 20.3 fmol/mg protein
Estrogen Receptor Levels, Nuclear (estrogen receptor (ER); [12]): 69.9 ± 9.4 fmol/mg protein
Estrogen Receptor Levels, Cytosolic (estrogen receptor (ER); [13]): 96.2 ± 11.2 fmol/mg protein
Estrogen Receptor Levels, Nuclear (estrogen receptor (ER); [13]): 31.3 ± 5.6 fmol/mg protein
ED40-60 for Inhibition, ERc (estrogen receptor (ER)): 2 µmol/kg
ED40-60 for Inhibition, ERn (estrogen receptor (ER)): 2 µmol/kg
Estrogen Receptor Levels, Cytosolic (estrogen receptor (ER); [6]): 86.7 ± 4.3 fmol/mg protein
Estrogen Receptor Levels, Nuclear (estrogen receptor (ER); [6]): 64.7 ± 3.9 fmol/mg protein
Estrogen Receptor Levels, Cytosolic (estrogen receptor (ER); [7]): 83.9 ± 4.2 fmol/mg protein
Estrogen Receptor Levels, Nuclear (estrogen receptor (ER); [7]): 53.8 ± 3.2 fmol/mg protein
Estrogen Receptor Levels, Cytosolic (estrogen receptor (ER); [8]): 75.1 ± 3.8 fmol/mg protein
Estrogen Receptor Levels, Nuclear (estrogen receptor (ER); [8]): 49.3 ± 3.0 fmol/mg protein
Estrogen Receptor Levels, Cytosolic (estrogen receptor (ER); [9]): 71.0 ± 3.6 fmol/mg protein
Estrogen Receptor Levels, Nuclear (estrogen receptor (ER); [9]): 40.0 ± 2.4 fmol/mg protein
Progesterone Receptor Levels, Cytosolic [1, 12]: 795 ± 52 fmol/mg protein
Progesterone Receptor Levels, Nuclear [1, 12]: 1081 ± 131 fmol/mg protein
Progesterone Receptor Levels, Cytosolic [1, 13]: 625 ± 71 fmol/mg protein
Progesterone Receptor Levels, Nuclear [1, 13]: 457 ± 58 fmol/mg protein
ED40-60 for Inhibition, PRc [1]: 2 µmol/kg
ED40-60 for Inhibition, PRn [1]: 10 µmol/kg
Progesterone Receptor Levels, Cytosolic [1, 6]: 1220 ± 85 fmol/mg protein
Progesterone Receptor Levels, Nuclear [1, 6]: 925 ± 74 fmol/mg protein
Progesterone Receptor Levels, Cytosolic [1, 7]: 970 ± 68 fmol/mg protein
Progesterone Receptor Levels, Nuclear [1, 7]: 765 ± 61 fmol/mg protein
Progesterone Receptor Levels, Cytosolic [1, 8]: 1000 ± 63 fmol/mg protein
Progesterone Receptor Levels, Nuclear [1, 8]: 645 ± 52 fmol/mg protein
Progesterone Receptor Levels, Cytosolic [1, 9]: 885 ± 53 fmol/mg protein
Progesterone Receptor Levels, Nuclear [1, 9]: 450 ± 36 fmol/mg protein

CC(C)c1cc(Cl)cc2c1oc1cc(Cl)cc(Cl)c12 [6-i-Propyl-1,3,8-triCDF]
Uterine Wet Weight (female rat uterus; [2]): 0.210 ± 0.012 % body wt
Uterine Wet Weight (female rat uterus; [3]): 0.154 ± 0.017 % body wt
antiuterotrophic activity (female rat uterus; rat, in vivo): surprisingly active
Estrogen Receptor Levels, Cytosolic (estrogen receptor (ER); [2]): 135.5 ± 78.1 fmol/mg protein
Estrogen Receptor Levels, Nuclear (estrogen receptor (ER); [2]): 52.6 ± 2.6 fmol/mg protein
Estrogen Receptor Levels, Cytosolic (estrogen receptor (ER); [3]): 95.2 ± 6.2 fmol/mg protein
Estrogen Receptor Levels, Nuclear (estrogen receptor (ER); [3]): 57.7 ± 2.9 fmol/mg protein
ED40-60 for Inhibition, ERc (estrogen receptor (ER)): 10 µmol/kg
ED40-60 for Inhibition, ERn (estrogen receptor (ER)): 25 µmol/kg
Progesterone Receptor Levels, Cytosolic [1, 2]: 2131 ± 76 fmol/mg protein
Progesterone Receptor Levels, Nuclear [1, 2]: 272 ± 19 fmol/mg protein
Progesterone Receptor Levels, Cytosolic [1, 3]: 1225 ± 59 fmol/mg protein
Progesterone Receptor Levels, Nuclear [1, 3]: 242 ± 17 fmol/mg protein
ED40-60 for Inhibition, PRc [1]: 25 µmol/kg
ED40-60 for Inhibition, PRn [1]: 25 µmol/kg
